Experimental data as given in article PMC12881674, “Activation of TRPV3 channels in bladder cancer cells stimulates ATP release” (Molecular Pharmacology, 2025).

Target: T1, TRPV3 in CAL-29 cells (Homo sapiens, UniProt Q8NET8)
T1 construct: host or cells: CAL-29
T1 sequence (Q8NET8 1-790): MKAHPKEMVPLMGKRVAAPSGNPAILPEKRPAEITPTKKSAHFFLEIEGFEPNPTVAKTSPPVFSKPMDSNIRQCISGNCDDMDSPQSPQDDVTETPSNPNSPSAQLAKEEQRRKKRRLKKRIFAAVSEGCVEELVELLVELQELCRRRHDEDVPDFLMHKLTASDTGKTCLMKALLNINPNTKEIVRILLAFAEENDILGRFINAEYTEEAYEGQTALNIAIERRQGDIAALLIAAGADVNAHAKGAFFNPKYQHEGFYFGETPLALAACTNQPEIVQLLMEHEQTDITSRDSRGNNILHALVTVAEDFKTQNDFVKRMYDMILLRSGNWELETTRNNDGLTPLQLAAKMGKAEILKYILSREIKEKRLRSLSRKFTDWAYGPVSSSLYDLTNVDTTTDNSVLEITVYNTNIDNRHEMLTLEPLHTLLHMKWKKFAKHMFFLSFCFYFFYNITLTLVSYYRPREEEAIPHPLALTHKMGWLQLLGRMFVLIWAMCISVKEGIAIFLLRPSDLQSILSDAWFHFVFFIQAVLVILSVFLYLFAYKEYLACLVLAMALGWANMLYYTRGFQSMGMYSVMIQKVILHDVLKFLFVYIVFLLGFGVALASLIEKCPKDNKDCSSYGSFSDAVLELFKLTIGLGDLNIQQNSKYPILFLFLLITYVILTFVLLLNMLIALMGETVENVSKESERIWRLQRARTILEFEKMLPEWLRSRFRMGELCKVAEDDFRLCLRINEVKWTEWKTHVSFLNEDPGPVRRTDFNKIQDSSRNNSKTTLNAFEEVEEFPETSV
Assay: fura-2 Ca2+ assay in CAL-29 bladder cancer cells
Type: cell-based
Conditions: 50 μM AV3-1
Method: All fluorometric Ca^2+ assays were performed in HBS buffer at room temperature. The compounds of the Enamine Diversity Set were diluted in a buffer composed of 150 mM NaCl and 20 mM HEPES and added to the cells at a final concentration of 25 μM (0.5% DMSO). For the primary compound screening and the generation of concentration-response analyses, a robotic liquid handling station (Freedom Evo 150; Tecan) with a built-in custom-made fluorescence plate imager was used. HEKTRPV3 and bladder cancer cell lines were harvested and loaded with 4 μM fluo-4/AM (Invitrogen; Fisher Scientific) in cell culture medium for 30 minutes at 37 °C. […] Fluorescence was excited using a 470-nm light-emitting diode, and emitted light was imaged through a 515-nm–long pass filter with a cooled Zyla 5.5 camera (Andor). Fluorescence was recorded and processed under the control of the μ-Manager 2.0 gamma software (https://micro-manager.org.[28]). After recording baseline fluorescence, compounds were dispensed into the wells via the liquid handling device. […] For further analysis, fluorescence signals were calculated for each well, corrected for background intensities and normalized to the initial signals. […] Fluorescence signals were excited with a fiber-coupled monochromator device (Polychrome V; Till Photonics) at 340, 358, and 380 nm and calibrated as described before.[29] […]

COC(=O)C12CN(Cc3ccccc3)CC1(C(=O)OC)CN(Cc1ccccc1)C2 (stereo not shown) [AV3-1]
[Ca2+]i response in CAL-29 cells: robust increases in [Ca^2+]i
